Source: article PMC8248988, “A signal capture and proofreading mechanism for the KDEL-receptor explains selectivity and dynamic range in ER retrieval” (eLife, 2021)

What was measured:
Assay type in all cases: cell-based
Conditions in all cases: COS-7 cells
[1] = target: T1, human KDELR1 D50N (Homo sapiens, UniProt P24390, D50N); assay: ER retrieval assay, KDELR1 D50N-GFP
T1 construct: expressed in transfected cells; host or cells: COS-7
From the text: (§1) To create KDELR1-GFP and KDELR2-GFP, the reading frames for Homo sapiens KDELR1 (Uniprot: P24390) and KDELR2 (Uniprot: P33947) were cloned into the pEF5/FRT low level mammalian expression vector with a C-terminal 20 amino acid linker made up of 5 copies of Gly-Ser-Ser-Ser followed by GFP. Specific point mutations were introduced using the Quickchange protocol (Stratagene) and are described in the key resources table and figures. To create the mScarlet-KDEL^sec ligand construct, mScarlet with an N-terminal hGH signal peptide and the 16 C-terminal residues of human BiP at its C-terminus, containing the KDEL signal, was cloned into the pcDNA3.1 vector. […] The Golgi marker protein TGN46 was detected by antibody (sheep anti-TGN46 AHP500G; AbD Serotec) and an Alexa 647 conjugated secondary anti-sheep secondary (A-21448, Invitrogen). In Figure 1d and e, endogenous KDELR was detected by antibody (mouse anti-KDELR ADI-VAA-PT048; Enzo Life Sciences) and Alexa 488 conjugated anti-mouse secondary antibody (A-21202, Invitrogen). For retrieval assays in other figures, KDELR-GFP fusion proteins were directly detected by fluorescence. The mScarlet-xDEL fusion proteins were directly detected by fluorescence. […] The fraction of KDEL receptor in the Golgi apparatus was calculated by dividing the Golgi signal by the total cell signal. […]

[2] = target: T2, human KDELR1 N54R (Homo sapiens, UniProt P24390, N54R); assay: ER retrieval assay, KDELR1 N54R-GFP
T2 construct: expressed in transfected cells; host or cells: COS-7
From the text: as §1

[3] = target: T3, human KDELR1 E117N (Homo sapiens, UniProt P24390, E117N); assay: ER retrieval assay, KDELR1 E117N-GFP
T3 construct: expressed in transfected cells; host or cells: COS-7
From the text: as §1

[4] = target: T4, human KDELR1 D50N/N54R (Homo sapiens, UniProt P24390, D50N/N54R); assay: ER retrieval assay, KDELR1 D50N/N54R-GFP
T4 construct: expressed in transfected cells; host or cells: COS-7
From the text: as §1

T4 sequence (P24390 whole entry D50N/N54R): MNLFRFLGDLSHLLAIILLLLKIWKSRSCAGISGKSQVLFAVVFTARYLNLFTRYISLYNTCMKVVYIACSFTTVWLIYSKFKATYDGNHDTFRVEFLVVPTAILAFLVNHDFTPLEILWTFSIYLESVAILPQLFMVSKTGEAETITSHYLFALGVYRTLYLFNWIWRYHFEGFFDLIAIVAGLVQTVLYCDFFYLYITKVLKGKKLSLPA
T1 sequence (P24390 whole entry D50N): as the sequence (P24390 whole entry D50N/N54R) above, with R54N counted along it
T3 sequence (P24390 whole entry E117N): as the sequence (P24390 whole entry D50N/N54R) above, with N50D, R54N, E117N counted along it
T2 sequence (P24390 whole entry N54R): as the sequence (P24390 whole entry D50N/N54R) above, with N50D counted along it

ADEL [pcDNA3.1 hGHss-mScarlet-H. sapiens BiP639-654K651A (ADEL^SEC), secreted mScarlet fusion with human BiP C-terminus, ADEL signal]
ligand-induced receptor retrieval to the ER (in words) [1]: abolished the response to all signal variants
ligand-induced receptor retrieval to the ER (in words) [2]: did not result in ADEL or DDEL recognition
ligand-induced receptor retrieval to the ER (in words) [3]: move to the ER
ligand-induced receptor retrieval to the ER (in words) [4]: gave a response
